Laboratory results published in US6916843B1, “Anti-inflammatory actions of cytochrome P450 expoxygenase-derived eicosanoids” (The United States of America as represented by the …, priority 1999, dated 2005).

Key:
[1] = tested on: VCAM-1 promoter; test: VCAM-1 promoter construct activity in transiently transfected bovine aortic endothelial cells; assay type: cell-based
Excerpt: To localize cis-acting elements in the VCAM-1 promoter that might mediate the inhibitory effects of [11,12]-EET, we transiently transfected bovine aortic endothelial cells with a -755 bp VCAM-1 promoter construct (DeCaterina et al., 96 J. Clin. Invest. 60 (1995)). Stimulation with TNF-α induced a 13-fold increase in relative VCAM-1 promoter activity that was abolished by cotreatment with [11,12]-EET. […] To confirm that the tandem κB sites in the VCAM-1 promoter are repressed by [11,12]-EET we subcloned them into a heterologous promoter construct containing the SV40 enhancer linked to the luciferase reporter gene (pκB.Luc). Stimulation of transfected endothelial cells with TNF-α induced a 6-fold increase in pκB.Luc promoter activity that was abolished by co-treatment with [11,12]-EET, but not [14,15]-EET (FIG. 2C). […] Compared to transfection with the empty pcDNA3.1 vector, overexpression of CYP2J2 decreased TNF-induced VCAM-1 and pκB.Luc promoter activity by 70-80% which were reversed in the presence of SK[…] (FIG. 2C). Neither transfection with CYP2J2 cDNA alone nor treatment with SK[…] alone affected basal promoter activity.

[2] = tested on: NF-κB; test: NF-κB heterologous promoter (pκB.Luc) luciferase reporter in bovine endothelial cells; assay type: cell-based
Procedure: FIG. 2 is a set of bar graphs of cell-surface enzyme immunoassays. […] The difference between treatment with TNF-α alone and in the presence of [11,12]-EET were statistically significant (*p<0.05, **p<0.01), OD, optical density. […] After stimulation with TNF-α (10 ng/ml) in the presence or absence of EET, promoter activity was determined relative to basal activity. *p<0.01 vs. TNF-α alone.
To localize cis-acting elements in the VCAM-1 promoter that might mediate the inhibitory effects of [11,12]-EET, we transiently transfected bovine aortic endothelial cells with a −755 bp VCAM-1 promoter construct (DeCaterina et al., 96 J. Clin. Invest. 60 (1995)). Stimulation with TNF-α induced a 13-fold increase in relative VCAM-1 promoter activity that was abolished by cotreatment with [11,12]-EET. […] To confirm that the tandem κB sites in the VCAM-1 promoter are repressed by [11,12]-EET we subcloned them into a heterologous promoter construct containing the SV40 enhancer linked to the luciferase reporter gene (pκB.Luc). Stimulation of transfected endothelial cells with TNF-α induced a 6-fold increase in pκB.Luc promoter activity that was abolished by co-treatment with [11,12]-EET, but not [14,15]-EET (FIG. 2C). […] Compared to transfection with the empty pcDNA3.1 vector, overexpression of CYP2J2 decreased TNF-induced VCAM-1 and pκB.Luc promoter activity by 70-80% which were reversed in the presence of SKF525A (FIG. 2C). Neither transfection with CYP2J2 cDNA alone nor treatment with SKF525A alone affected basal promoter activity.

[3] = tested on: bovine aortic endothelial cells (BAECs); test: Hypoxia-reoxygenation-induced cell injury in BAECs (cell number, LDH release, trypan blue); assay type: cell-based
Procedure: Effects of P450-derived arachidonic acid metabolites on hypoxia-reoxygenalion-induced injury in BAECs. BAECs, either untransfected, or 48 hours after transfection with pcDNA3.1/GFP or pcDNA3.1/CYP2J2, or 10 min after treatment with eicosanoids, epoxide hydrolase inhibitors or vehicle, were exposed to hypoxia (95% nitrogen plus 5% carbon dioxide) for 24 hours, followed by reoxygenation (95% air plus 5% carbon dioxide) for 4 hours using an environmental chamber within a 37° C. incubator. Cells maintained under continuous (28 hours) normoxic conditions served as controls.
EETs were prepared by total chemical synthesis as previously described (Corey el al., 102 J. Am. Chem. Soc. 1433-1435 (1980), Falck et al., 23 Tetrahedron Lett. 1755-1756 (1982)). DHETs were prepared by chemical hydration of EETs as described by Capdevila et al., 187 Methods Enzymol. 386-394 (1990). Synthetic EETs and DHETs were purified by reverse-phase HPLC prior to use. BAECs, grown to ˜85% confluency, were treated with either synthetic [11,12]-EET, [11,12]-DHET, or [14,15]-EET in ethanol vehicle (1 μmol/L each, final concentration) for 10 min prior to exposure to hypoxia-reoxygenation. […] Cells treated with vehicle alone served as controls.
After hypoxia-reoxygenation, the cell number was determined using a hemocytometer and the degree of cell injury was assessed by measuring lactate dehydrogenase release into the culture medium using the CytoTox 96 Non-Radioactive Cytotoxicity Assay Kit (Promega, Madison, Wis.) and by counting the number of trypan blue dye stained cells. Data are expressed as a percentage of values obtained from control cells maintained under normoxic conditions.

[4] = tested on: superoxide anion; test: Superoxide anion formation by BAECs (lucigenin chemiluminescence); assay type: cell-based, bovine; details: CYP2J2-transfected vs GFP-transfected cells
Procedure: The rate of superoxide anion generation by BAECs was determined as follows: Forty-eight hours after transfection with either pcDNA3.1/GFP or pcDNA3.1/CYP2J2, BAECs were detached by treatment with trypsin and resuspended in culture medium containing 10% FBS. Special care was taken to avoid unnecessary manipulation of the BAECs. The rate of superoxide anion formation in vitro was determined by chemiluminescence of lucigenin (bis-N-methylacridinium nitrate) as described by Yang et al., 274 Am. J. Physiol. H1955-H1961 (1998)). Briefly, culture medium (10% of FBS added) containing 0.25 mmol/L lucigenin (pH 7.4) was prepared as an assay solution. One milliliter of this assay solution was placed in a plastic scintillation vial., and then 2×10^6 BAECs were gently placed in the assay solution. The chemiluminescence of lucigenin was then detected with the use of a scintillation counter (LS 6500, Beckman Instruments, Fullerton, Calif.) in out-of-coincidence mode with a single active photomultiplier tube every 5 min. The chemical specificity of this light-yielding reaction for superoxide anion has been reported previously (Yang et al., 274 Am. J. Physiol. H1955-H1961 (1998)).

[5] = overexpression vs empty pcDNA3.1 vector
[6] = CYP2J2-transfected vs GFP-transfected BAECs

Compound | effect on TNF-α-induced VCAM-1 promoter activity, −755 bp construct ([1]; cotreatment with TNF-α (13-fold increase)) | effect on TNF-α-induced pκB.Luc promoter activity ([2]; 100 nM, TNF-α 10 ng/ml (6-fold increase)) | hypoxia-reoxygenation-induced cell injury, number of trypan blue stained cells ([3]; 1 μmol/L, added 10 min prior to hypoxia (24 h hypoxia, 4 h reoxygenation)) | decrease of TNF-induced VCAM-1 promoter activity [1, 5] | decrease of TNF-induced pκB.Luc promoter activity [2, 5] | cell number after hypoxia-reoxygenation [3, 6] | lactate dehydrogenase released into culture medium after hypoxia-reoxygenation [3, 6] | trypan blue stained cells after hypoxia-reoxygenation [3, 6] | rate of superoxide anion formation [4]
CCCCC/C=C\C[C@H]1O[C@H]1C/C=C\C/C=C\CCCC(=O)O [[11,12]-EET] | abolished | abolished | significantly attenuates | – | – | – | – | – | –
CYP2J2: CYP2J2 cDNA (1.9 kb) subcloned into plasmid pcDNA3.1, transfected into endothelial cells | – | – | – | 70-80% | 70-80% | slightly increased | significantly less | significantly fewer | significantly lower
